# Results from the supplement of paper PMC10307832.
# Legend:
# Experiment in all cases: relative viability (nuclei count vs DMSO), 5 days (fraction); higher = more cells survive
# Bexarotene + Foretinib = compound: C=C(c1ccc(C(=O)O)cc1)c1cc2c(cc1C)C(C)(C)CCC2(C)C [Bexarotene] + COc1cc2c(Oc3ccc(NC(=O)C4(C(=O)Nc5ccc(F)cc5)CC4)cc3F)ccnc2cc1OCCCN1CCOCC1 [Foretinib] (partner 0.25 µM)
# Summary of the method: (§1)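 Nuclei were stained with Hoechst during a one-step fixation (final 0.05% Triton X-100, 1% formaldehyde, 1 ug/ml Hoechst) carried out 5 days after dosing, then counted on 4× images. The cells, lung cancer lines in 1536-well plates, had been dosed by pin tool the day after seeding with one drug alone or a fixed anchor-drug dose plus five library-drug doses (not always all listed) in √10 steps. Relative viability is the nuclei count in treated wells divided by that in vehicle wells, and each value is the median of duplicate plates.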
# Bexarotene + Alpelisib = compound: C=C(c1ccc(C(=O)O)cc1)c1cc2c(cc1C)C(C)(C)CCC2(C)C [Bexarotene] + Cc1nc(NC(=O)N2CCC[C@H]2C(N)=O)sc1-c1ccnc(C(C)(C)C(F)(F)F)c1 [Alpelisib] (partner 2 µM)
# Summary of the method: as §1
# Bexarotene + Olaparib = compound: C=C(c1ccc(C(=O)O)cc1)c1cc2c(cc1C)C(C)(C)CCC2(C)C [Bexarotene] + O=C(c1cc(Cc2n[nH]c(=O)c3ccccc23)ccc1F)N1CCN(C(=O)C2CC2)CC1 [Olaparib] (partner 8 µM)
# Summary of the method: as §1
# Bexarotene + Pemetrexed = compound: C=C(c1ccc(C(=O)O)cc1)c1cc2c(cc1C)C(C)(C)CCC2(C)C [Bexarotene] + Nc1nc2[nH]cc(CCc3ccc(C(=O)N[C@@H](CCC(=O)O)C(=O)O)cc3)c2c(=O)[nH]1 [Pemetrexed] (partner 0.2 µM)
# Summary of the method: as §1
Cell Line,relative viability (Bexarotene + Foretinib; first compound 0.08 µM),relative viability (Bexarotene + Foretinib; first compound 0.253 µM),relative viability (Bexarotene + Foretinib; first compound 0.8 µM),relative viability (Bexarotene + Foretinib; first compound 2.53 µM),relative viability (Bexarotene + Foretinib; first compound 8 µM),relative viability (Bexarotene + Alpelisib; first compound 0.08 µM),relative viability (Bexarotene + Alpelisib; first compound 0.253 µM),relative viability (Bexarotene + Alpelisib; first compound 0.8 µM),relative viability (Bexarotene + Alpelisib; first compound 2.53 µM),relative viability (Bexarotene + Alpelisib; first compound 8 µM),relative viability (Bexarotene + Olaparib; first compound 0.08 µM),relative viability (Bexarotene + Olaparib; first compound 0.253 µM),relative viability (Bexarotene + Olaparib; first compound 0.8 µM),relative viability (Bexarotene + Olaparib; first compound 2.53 µM),relative viability (Bexarotene + Olaparib; first compound 8 µM),relative viability (Bexarotene + Pemetrexed; first compound 0.08 µM),relative viability (Bexarotene + Pemetrexed; first compound 0.253 µM),relative viability (Bexarotene + Pemetrexed; first compound 0.8 µM),relative viability (Bexarotene + Pemetrexed; first compound 2.53 µM),relative viability (Bexarotene + Pemetrexed; first compound 8 µM)
NCI-H2087,1.3,1.1,1.12,0.982,1.03,1.27,1.11,1.08,0.997,1.05,0.689,0.72,0.582,0.481,0.58,0.681,0.743,0.696,0.652,0.549
NCI-H2228,0.971,1.08,0.698,0.897,0.837,0.669,0.722,0.609,0.629,0.499,0.825,0.799,0.631,0.591,0.492,0.36,0.358,0.365,0.212,0.376
NCI-H727,1.09,1.12,0.875,0.859,0.808,0.808,0.522,0.503,0.58,0.701,0.778,0.694,0.804,0.691,0.807,,,,,
NCI-H650,0.974,0.995,0.958,0.991,0.996,1.18,1.06,1.08,1.06,1,0.325,0.432,0.354,0.356,0.382,1.09,0.887,0.882,0.832,0.918
NCI-H520,0.854,0.678,0.652,0.812,0.727,0.99,0.775,0.708,0.826,0.803,0.368,0.347,0.313,0.316,0.332,0.799,0.663,0.717,0.797,0.708
EBC-1,0.111,0.124,0.101,0.129,0.112,1.22,0.989,0.756,0.89,0.868,0.771,0.713,0.588,0.701,0.715,,,,,
NCI-H661,1.02,1.04,0.916,0.967,0.933,0.664,0.587,0.776,0.5,0.645,0.769,0.756,0.73,0.751,0.707,1.05,0.91,0.892,0.872,0.869
NCI-H1299,1.06,1.18,1.05,1.1,1.08,1.05,1.13,1.12,1.05,1.05,0.951,0.967,0.917,0.882,0.895,,,,,
LK-2,1.42,1.27,1.54,,1.68,1.15,1.12,1.12,1.25,1.15,0.97,0.632,0.981,0.652,0.841,0.353,0.292,0.285,0.275,0.238
NCI-H1993,0.807,0.732,0.768,0.725,0.766,0.657,0.645,0.689,0.735,0.684,0.979,1.08,0.94,1.01,0.896,0.714,0.611,0.537,0.534,0.514
SW 900,0.991,0.881,0.901,1,0.862,,,,,,0.936,0.733,1.11,0.866,0.863,0.509,0.465,0.456,0.454,0.477
NCI-H1650,1.13,0.988,1.09,1.18,1.11,,,,,,0.769,0.674,0.797,0.697,0.7,0.353,0.371,0.352,0.379,0.432
NCI-H522,,,,,,,,,,,0.666,0.66,0.635,0.564,0.675,1.01,1.18,1.11,0.855,0.862
IA-LM,1.03,1.14,0.98,0.935,0.93,0.771,0.702,0.67,0.581,0.669,0.752,0.707,0.675,0.576,0.63,,,,,
NCI-H1563,1.04,0.868,0.824,0.989,0.85,0.947,0.804,0.955,0.973,0.839,,,,,,0.753,0.632,0.745,0.682,0.85
HCC-44,,,,,,0.894,0.855,0.741,0.735,0.722,1.07,1.11,1.05,1.03,1.05,0.694,0.738,0.658,0.741,0.65
ABC-1,0.991,1.19,1.13,0.855,1.08,0.714,0.892,0.949,0.953,0.87,0.827,0.839,0.478,,0.631,,,,,
NCI-H2342,1.01,1.02,1.09,1.12,1.05,,,,,,0.425,0.52,0.481,0.407,0.583,0.827,0.739,0.747,0.825,0.797
NCI-H1792,,,,,,0.534,0.697,0.532,0.585,0.413,0.229,0.435,0.393,0.337,0.32,1.1,0.848,0.487,0.482,0.455
